Measured values as given in ChEMBL document CHEMBL4610087, “Swinhopeptolides A and B: Cyclic Depsipeptides from the Sponge Theonella swinhoei That Inhibit Ras/Raf Interaction” (J Nat Prod, 2020).

Assay: Inhibition of Ras-Raf (unknown origin) protein-protein interaction incubated for 4 hrs by cell based-BRET assay
Conditions: Homo sapiens

| Structure (SMILES) | IC50 [µM] |
| --- | --- |
| C/C=C(\NC(=O)[C@@H](CO)NC(=O)[C@@](C)(O)[C@H](O)/C=C\C(C)=C\[C@H](C)CC)C(=O)N[C@H](C(=O)N[C@H](C(=O)N[C@H]1C(=O)N[C@H](COC)C(=O)NCC(=O)N[C@@H](C)C(=O)N(C)[C@@H]([C@@H](C)O)C(=O)N[C@H]([C@H](OC)c2ccc(O)cc2)C(=O)N2CCC[C@H]2C(=O)O[C@@H]1C(C)C)[C@@H](C)[C@@H](C)C(N)=O)[C@H](C)N | 5.8 |
| C/C=C(\NC(=O)[C@@H](CO)NC(=O)/C(C)=C/C=C/C(C)=C/C(C)CC)C(=O)N[C@H](C(=O)N[C@H](C(=O)N[C@H]1C(=O)N[C@H](COC)C(=O)NCC(=O)N[C@@H](C)C(=O)N(C)[C@@H]([C@@H](C)O)C(=O)N[C@H]([C@H](OC)c2ccc(O)cc2)C(=O)N2CCC[C@H]2C(=O)O[C@@H]1C(C)C)[C@@H](C)[C@@H](C)C(N)=O)[C@H](C)N (some centres not stated) | 8.5 |
